Laboratory results taken from PubChem BioAssay (NCI).
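Step 1: Grow cells in 96-well plates. Step 2: Expose to compound for 48 hours at 5 concentrations. Step 3: Interpolate endpoints linearly; if unreached, use highest concentration. Definition used: TGI = concentration required for complete inhibition of growth.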

Assays:
Experiment in all cases: NCI tumour cell line growth inhibition, 48 h
ACHN renal = system: ACHN renal
BT-549 breast = system: BT-549 breast
HS 578T breast = system: HS 578T breast
M14 melanoma = system: M14 melanoma
MDA-MB-435 = system: MDA-MB-435
PC-3 prostate = system: PC-3 prostate
T-47D breast = system: T-47D breast
TK-10 renal = system: TK-10 renal
A498 renal = system: A498 renal
DMS 273 small cell lung = system: DMS 273 small cell lung
HCT-116 colon = system: HCT-116 colon
HOP-18 NSCLC = system: HOP-18 NSCLC
KM20L2 colon = system: KM20L2 colon
M19-MEL melanoma = system: M19-MEL melanoma
P388 leukemia = system: P388 leukemia
P388/ADR leukemia = system: P388/ADR leukemia
RPMI-8226 leukemia = system: RPMI-8226 leukemia
SN12K1 renal = system: SN12K1 renal
SNB-78 CNS = system: SNB-78 CNS
XF 498 CNS = system: XF 498 CNS

COc1cc(-c2coc3c(OC)c(OC4OC(COC5OC(C)C(O)C(O)C5O)C(O)C(O)C4O)c(OC)c(O)c3c2=O)cc(C)c1O (stereo not given)
TGI (ACHN renal): 52.9 µM
TGI (BT-549 breast): 45.4 µM
TGI (HS 578T breast): 62.1 µM
TGI (M14 melanoma): 33.1 µM
TGI (MDA-MB-435): 75.2 µM
TGI (PC-3 prostate): 74.1 µM
TGI (T-47D breast): 61.4 µM
TGI (TK-10 renal): > 100 µM

CC(=O)OC1C(O)C(C)OC(OC(=O)C2CCC3C(C2)OC2(CC(OC(=O)/C=C/c4ccccc4)C(C)CO2)C32CO2)C1OC1OC(C)C(O)C(O)C1O (stereo not given)
TGI (A498 renal): 315 nM
TGI (DMS 273 small cell lung): 151 nM
TGI (HCT-116 colon): 709 nM
TGI (HOP-18 NSCLC): 585 nM
TGI (KM20L2 colon): 1420 nM
TGI (M19-MEL melanoma): 49.7 nM
TGI (P388 leukemia): 1390 nM
TGI (P388/ADR leukemia): 113 µM
TGI (RPMI-8226 leukemia): 1150 nM
TGI (SN12K1 renal): 82.8 nM
TGI (SNB-78 CNS): 104 nM
TGI (XF 498 CNS): 126 nM
